Laboratory results taken from paper PMC11790914, “Chemogenomics for steroid hormone receptors (NR3)” (Communications Chemistry, 2025).

What was measured:
[1] = molecular target: T1, NR4A1 (Nur77) (Homo sapiens, UniProt P22736); assay: Gal4 hybrid reporter gene assay Nur77; assay type: cell-based; conditions: 10 µM, n=3
T1 construct: expressed in transfected cells; host or cells: HEK293T
Description: (§1) Reference ligands are listed in the methods section.
(§2) HEK293T cells (ATCC, Manassas, Virgina, USA; #CRL-3216) were cultured to a maximal confluence of 70–80% in DMEM, high glucose, supplemented with 10% FCS, sodium pyruvate (1 mM), penicillin (100 U/mL), and streptomycin (100 μg/mL) at 37 °C and 5% CO2 (v/v), and seeded in clear 96-well plates (4 × 10^4 cells per well). After 20–24 h, medium was changed to Opti-MEM without supplements and the cells were transiently transfected using Lipofectamine™ LTX/Plus™ Reagents (Invitrogen, Carlsbad, California, USA; #15338100) according to the manufacturer’s protocol with pFR-Luc (reporter gene; Stratagene, Agilent Technologies, Santa Clara, California, USA; #219050), pRL-SV40 (control gene for normalization of transfection efficiency and cell growth; Promega, Fitchburg, Wisconsin, USA; #E2231) and one pFA-CMV-hNR-LBD clone coding for the hinge region and ligand binding domain (LBD) of the human NR of interest. […] Firefly (reporter) and renilla (control) luminescence were measured after 14–16 h incubation using the Dual-Glo® Luciferase Assay System (Promega, Fitchburg, Wisconsin, USA; #E2980) according to manufacturer’s protocol on a Tecan Spark® 10M multimode microplate reader (Tecan Group AG, Männedorf, Switzerland). To obtain relative light units (RLU) firefly luminescence was divided by renilla luminescence and multiplied by 1000. […]

[2] = molecular target: T2, NR1I2 (PXR) (Homo sapiens, UniProt O75469); assay: Gal4 hybrid reporter gene assay PXR; assay type: cell-based; conditions: 1 µM, n=3
T2 construct: expressed in transfected cells; host or cells: HEK293T
T2 sequence (O75469 146-433 limits assumed): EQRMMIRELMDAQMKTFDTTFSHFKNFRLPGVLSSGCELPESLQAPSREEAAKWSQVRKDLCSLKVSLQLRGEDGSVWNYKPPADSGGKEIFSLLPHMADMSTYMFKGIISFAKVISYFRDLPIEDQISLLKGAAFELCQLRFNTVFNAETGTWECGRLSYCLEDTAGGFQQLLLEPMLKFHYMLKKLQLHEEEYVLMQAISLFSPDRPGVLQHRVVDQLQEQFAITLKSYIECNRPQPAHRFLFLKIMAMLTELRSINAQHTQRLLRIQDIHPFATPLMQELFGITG
Description: as §1, §2

[3] = tested on: NR5A2 (LRH1); assay: Gal4 hybrid reporter gene assay LRH1; assay type: cell-based, human; conditions: 1 µM; n=3; vs. DMSO ctrl
Description: as §1, §2

T1 sequence (P22736 360-595 limits assumed): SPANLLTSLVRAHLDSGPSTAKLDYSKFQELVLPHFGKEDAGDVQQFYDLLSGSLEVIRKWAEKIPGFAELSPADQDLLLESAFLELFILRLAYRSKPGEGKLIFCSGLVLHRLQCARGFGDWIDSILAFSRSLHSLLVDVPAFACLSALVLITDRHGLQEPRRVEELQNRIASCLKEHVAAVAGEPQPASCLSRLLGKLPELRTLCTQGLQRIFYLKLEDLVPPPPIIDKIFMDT

With COc1ccc(-c2coc3cc(O)cc(O)c3c2=O)cc1 [Biochanin A] the “Activity on NR4A1 (Nurr77)” value [1] was 0.34 mean log10(fold reporter gene activity).

With CC/C(=C(/c1ccc(/C=C/C(=O)O)cc1)c1ccc2[nH]ncc2c1)c1ccc(F)cc1Cl [ARN810] the “Activity on NR1I2 (PXR)” value [2] was -0.68 mean log10(fold reporter gene activity).

COc1cc(/C=C(\C#N)C(=O)Nc2nnc(C(F)(F)F)s2)ccc1OCc1ccc(C(F)(F)F)cc1C(F)(F)F [XCT790] was tested, and the “Activity on NR targets outside NR3 family [mean log10(fold reporter gene activity)] NR5A2 (LRH1)” value [3] was 0.20 log10(fold reporter gene activity).
